# Assay results as given in PubChem BioAssay AID2821 (Broad Institute, 2010).
# Active and inactive are the calls of the source.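 Rule for the calls: active = IC50 no more than a set number of log units above the top dose tested; inconclusive = flat fit with 30 to 70% inhibition, or a poor fit; inactive = IC50 beyond that set limit.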
# Target: Serine/threonine-protein kinase 33 (Homo sapiens) (UniProt Q9BYT3)
# Assay: inhibition of STK33 phosphorylation of MBP – biochemical, luminescence, cell-free, retest, dose response (AID 2821)
# Details: purified STK33, MBP substrate, ADP-Glo luminescence
# Sequence of Serine/threonine-protein kinase 33 (Homo sapiens) (Q9BYT3 whole entry, looked up): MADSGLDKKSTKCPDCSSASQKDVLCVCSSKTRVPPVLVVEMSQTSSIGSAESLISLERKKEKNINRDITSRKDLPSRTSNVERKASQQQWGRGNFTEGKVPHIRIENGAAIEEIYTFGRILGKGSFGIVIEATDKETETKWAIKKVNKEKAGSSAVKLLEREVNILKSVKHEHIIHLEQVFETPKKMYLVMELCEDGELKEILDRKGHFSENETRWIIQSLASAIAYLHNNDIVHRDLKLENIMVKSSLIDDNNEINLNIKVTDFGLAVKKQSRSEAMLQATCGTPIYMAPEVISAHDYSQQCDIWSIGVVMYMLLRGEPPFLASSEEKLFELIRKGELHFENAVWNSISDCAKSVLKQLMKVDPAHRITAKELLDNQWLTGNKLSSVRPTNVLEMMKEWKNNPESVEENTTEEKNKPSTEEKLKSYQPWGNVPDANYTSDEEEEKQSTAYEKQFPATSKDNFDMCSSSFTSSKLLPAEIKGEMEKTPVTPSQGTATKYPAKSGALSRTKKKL
row,SMILES,IC50
1,CCn1c2ccc(/C(C)=N\O)cc2c2cc(/C(C)=N\O)ccc21,> 12 µM (inactive)
2,COc1cc(N=Cc2c(O)[nH]c3ccccc23)cc(OC)c1OC,4.93 µM
3,O=C1C(c2ccncc2)=C(O)c2ccccc21,10.3 µM
4,COC(=O)c1cccc2c1-c1ccccc1/C2=N/O,11.8 µM
5,O=c1c(/C=N/O)c(Nc2ccccc2)nc2ccccn12,6.22 µM
6,Oc1ccc(/C=C/c2ccnc3ccccc23)cc1,11.5 µM
7,N#C/C(=C(/O)c1ccco1)c1nc2ccccc2[nH]1,8.49 µM
8,Oc1ccc(/C=N/Nc2ccnc3cc(Cl)ccc23)cc1O,3.05 µM
9,COc1cc(C2c3sc(=O)[nH]c3SC3C(=O)N(c4ccc(C)cc4)C(=O)C32)ccc1O (stereo not given),> 12 µM (inactive)
10,CCCn1c2ccc(/C(C)=N\O)cc2c2cc(/C(C)=N/O)ccc21,2.48 µM
11,COc1ccc(N=Cc2c(O)[nH]c3ccccc23)cc1OC,5.22 µM
12,COc1cc(/C=C/C(O)=C/C(=O)/C=C/c2ccc(O)cc2)ccc1O,1.75 µM
13,Oc1[nH]c2ccccc2c1C=Nc1ccc2c(c1)OCO2,11.3 µM
14,NS(=O)(=O)c1ccc2c(c1)C(=NO)c1cc(S(N)(=O)=O)ccc1-2,4.91 µM
15,COc1cc(/C=C/C(=O)/C=C(O)/C=C/c2ccc(O)c(OC)c2)ccc1O,0.71 µM
